Experimental data published in patent US20240228518A1, “NOVEL ORGANOTIN SILICATE COMPOUNDS, PREPARATION METHODS THEREOF AND PHOTORESIST COMPOSITION CONTAINING THE SAME” (JSI SILICONE CO., priority 2022, published 2024).

Experiments:
[1] = Solubility experiment in various solvents; format: physicochemical
Excerpt: [Experimental Example 1] Solubility Experiment of tetrakis(triphenylstannyl) Silicate
For manufacturing a thin film including the tetrakis(triphenylstannyl) silicate compound prepared in Example 1, solubility in various solvents was experimented and is shown in the following Tables 2 and 3: […]

[2] = Stability in water (precipitation) of solution with acetic acid; format: physicochemical
Procedure: Since the photoresist composition included acetic acid, stability of tetrakis(triacetoxystannyl) silicate in water was able to be improved. When water was added at 5% to a 5% tetrakis(triacetoxystannyl) silicate solution, it was confirmed that precipitation occurred immediately. However, when acetic acid was added, precipitation was able to be prevented. It was confirmed that precipitation occurred after 3 minutes in a 10% acetic acid solution, after 3 hours in a 20% solution, and after 5 days in a 30% solution. Besides, the amount of precipitation was decreased as the acetic acid was added. Regarding a large amount of acetic acid, since a hydrolysis rate of an acetoxy group decreased according to le Chatelier's law, stability in water was improved.

Structure (SMILES)	Solubility ([1]; Chloroform)	Solubility ([1]; Ethyl lactate (EL))	Solubility ([1]; THF)	Solubility ([1]; gamma-Butyrolactone (GBL))	Time until precipitation occurred ([2]; water added at 5% to 5% solution, no acetic acid)	Time until precipitation occurred ([2]; water added, 10% acetic acid solution) [min]	Time until precipitation occurred ([2]; water added, 20% acetic acid solution) [min]	Time until precipitation occurred ([2]; water added, 30% acetic acid solution) [min]
c1cc[c]([Sn]([O][Si]([O][Sn]([c]2ccccc2)([c]2ccccc2)[c]2ccccc2)([O][Sn]([c]2ccccc2)([c]2ccccc2)[c]2ccccc2)[O][Sn]([c]2ccccc2)([c]2ccccc2)[c]2ccccc2)([c]2ccccc2)[c]2ccccc2)cc1 [Example 1, tetrakis(triphenylstannyl) silicate]	highest solubilites and ◯	Δ	highest solubilites and ◯	Δ	–	–	–	–
CC(=O)[O][Sn]([O]C(C)=O)([O]C(C)=O)[O][Si]([O][Sn]([O]C(C)=O)([O]C(C)=O)[O]C(C)=O)([O][Sn]([O]C(C)=O)([O]C(C)=O)[O]C(C)=O)[O][Sn]([O]C(C)=O)([O]C(C)=O)[O]C(C)=O [Example 14, tetrakis(triacetoxystannyl) silicate]	–	–	–	–	immediately	3	180	7200
